Measurements reported in US20040235939A1, “Synthesis of peloruside a and analogs thereof for use as antitumor agents” (priority 2003, published 2004).
Like-named read-outs stand apart in the source and are kept apart here.

Tests used:
HeLa cells = assay: Cell viability of HeLa cells treated with Peloruside analogs; format: cell-based, human; conditions: 10 to 1000 nM
Procedure: (§1) Cells were treated with medium, DMSO, LX3111 or LX3136 at a final concentration of 10, 50, 100, 200, 300, 400, 500, 600, 800 or 1000 nM. Cell viability was measured by counting surviving cells or measuring luminescence at 48 hours after drug treatment using the Cell Titer-Glo Luminescent Cell Viability Assay (Promega).

SK-MEL-5 cells = assay: Cell viability of SK-MEL-5 cells treated with Peloruside analogs; format: cell-based, human; conditions: SK-MEL-5, 10 to 1000 nM
Procedure: as §1

SK-MEL-5 = assay: Growth of cultured human tumor cell line SK-MEL-5; format: cell-based; conditions: SK-MEL-5, up to 10 μM
[1] = tested on: Tubulin, purified from bovine brains; assay: Tubulin polymerization in vitro; format: biochemical
Procedure: Tubulin, purified from bovine brains and prepared in PEM-buffer (80 mM PIPES, 0.5 mM MgCl2, 1 mM EGTA, pH 6.9) was thawed under vacuum on ice. Tubulin was incubated at 37° C. until almost melted and resuspended to a final concentration of 2 mg/ml and placed on ice. Peloruside A or Taxol® was added into transparent 96-well plates (Coming Incorp. Costar) and placed on ice. GTP (Sigma) was added to a final concentration of 1 mM. The 96 well plate was warmed to 37° C. and 120 μl of tubulin solution was added into each well. The absorbance of the reaction at 340 nm over time (each 40-50 sec.) was measured on the spectrophotometer TECAN SPECTRAFluor Plus. Peloruside A or Taxol® was added to the tubulin at a final concentration of 5 or 10 μM.

HeLa = assay: Growth of cultured human tumor cell line HeLa; format: cell-based; conditions: up to 10 μM

| Compound | inhibition of cell growth (antimitotic activity) (HeLa cells) | inhibition of cell growth (antimitotic activity) (SK-MEL-5 cells) | effect on the growth of cultured human tumor cell line (SK-MEL-5) | effect on the growth of cultured human tumor cell line (SK-MEL-5; listed as (−)-Peloruside A) | polymerization of tubulin dimers into microtubule polymers (microtubule-stabilizing activity) [1] | polymerization of tubulin dimers into microtubule polymers (microtubule-stabilizing activity) ([1]; listed as (−)-Peloruside A) | effect on the growth of cultured human tumor cell line (HeLa) | effect on the growth of cultured human tumor cell line (HeLa; listed as (−)-Peloruside A) |
| --- | --- | --- | --- | --- | --- | --- | --- | --- |
| CC[C@H](/C=C(/C)C1C[C@H](OC)CC(O)C(C)(C)C2(O)OC(C[C@@H](OC)C2O)C[C@@H](OC)[C@H](O)C(=O)O1)CO (stereo partly shown) [LX3111] | potent antimitotic activity | potent antimitotic activity | – | – | – | – | – | – |
| CC[C@H](/C=C(/C)C1C[C@@H](OC)CC(O)C(C)(C)C2(O)OC(C[C@@H](OC)C2O)C[C@@H](OC)[C@H](OCOC)C(=O)O1)CO (stereo partly shown) [LX3136] | potent antimitotic activity | potent antimitotic activity | – | – | – | – | – | – |
| (−)-Peloruside A [Compound 40] | – | – | no effect on the growth | inactive | did not polymerize tubulin dimers into microtubule polymers | biologically inactive | no effect on the growth | inactive |
